The source of these data is PubChem BioAssay AID328 (DTP/NCI, 2004).

This experiment concerns BDF1 mice, P388 leukemia ip, median survival T/C. The experiment is described as follows: NCI In Vivo Anticancer Drug Screen. Data for tumor model P388 Leukemia (intraperitoneal) in B6D2F1 (BDF1) mice. The settings on record: endpoint: median survival time, higher = longer survival. In short, it runs like this: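 Mice carrying the transplantable tumour receive compound or vehicle. Survival is followed in each arm, and the treated measure is divided by the vehicle measure.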

[1] abbreviates: dose: 5.0 mg/kg/injection, schedule: Q01DX009 (ip), vehicle: saline.
The mark [2] stands for this setting: dose: 50.0 mg/kg/injection, schedule: Q01DX009 (ip), vehicle: saline with Tween-80.
Setting [3] is: dose: 100.0 mg/kg/injection, schedule: Q01DX009 (ip), vehicle: saline with Tween-80.
The mark [4] stands for this setting: dose: 200.0 mg/kg/injection, schedule: Q01DX009 (ip), vehicle: saline with Tween-80.
Where [5] appears, read: dose: 100.0 mg/kg/injection, schedule: Q01DX009 (ip), vehicle: other.
The mark [6] stands for this setting: dose: 200.0 mg/kg/injection, schedule: Q01DX009 (ip), vehicle: other.
[7] abbreviates: dose: 400.0 mg/kg/injection, schedule: Q01DX009 (ip), vehicle: other.
[8] abbreviates: dose: 100.0 mg/kg/injection, schedule: Q04DX003 (ip), vehicle: saline with Tween-80.
Where [9] appears, read: dose: 200.0 mg/kg/injection, schedule: Q04DX003 (ip), vehicle: saline with Tween-80.
The mark [10] stands for this setting: dose: 400.0 mg/kg/injection, schedule: Q01DX009 (ip), vehicle: saline with Tween-80.
Where [11] appears, read: dose: 400.0 mg/kg/injection, schedule: Q04DX003 (ip), vehicle: saline with Tween-80.

Molecules are shown by their SMILES. Values joined by “and” are separate entries in the source; they are usually repeats but may differ in a detail not shown here. Equal entries are not always repeated. Inconclusive results and toxic doses are left out.

On to `Cc1ccc2scc3c4ccccc4nc-3c2c1`, for which the T/C was 94 % of control (dose: 2.5 mg/kg/injection, schedule: Q01DX009 (ip), vehicle: saline); 107 % of control under setting [1]; 114 % of control (dose: 10.0 mg/kg/injection, schedule: Q01DX009 (ip), vehicle: saline); 113 % of control and 124 % of control (dose: 12.5 mg/kg/injection, schedule: Q01DX009 (ip), vehicle: saline); 94 % of control (dose: 20.0 mg/kg/injection, schedule: Q01DX009 (ip), vehicle: saline); 113 % of control and 124 % of control (dose: 25.0 mg/kg/injection, schedule: Q01DX009 (ip), vehicle: saline). Also, the T/C reads like this: (dose: 56.25 mg/kg/injection, schedule: Q04DX003 (ip), vehicle: saline) 104 % of control; (dose: 75.0 mg/kg/injection, schedule: Q01DX009 (ip), vehicle: saline) 100 % of control and 104 % of control; (dose: 112.5 mg/kg/injection, schedule: Q01DX009 (ip), vehicle: saline) 96 % of control; (dose: 112.5 mg/kg/injection, schedule: Q04DX003 (ip), vehicle: saline) 113 % of control.
Take `O=C(O)CC/C(=N/OCc1cc2c(cc1Cl)OCO2)C(=O)O`: the T/C is 100 % of control (dose: 100.0 mg/kg/injection, schedule: Q04DX003 (ip), vehicle: saline sonified); 100 % of control (dose: 200.0 mg/kg/injection, schedule: Q04DX003 (ip), vehicle: saline sonified); 109 % of control (dose: 400.0 mg/kg/injection, schedule: Q04DX003 (ip), vehicle: saline sonified).
For `O=C(NC(=O)c1c(F)cccc1F)Nc1ccc(Br)cn1`, the T/C is, setting by setting: (dose: 25.0 mg/kg/injection, schedule: Q01DX009 (ip), vehicle: saline with Tween-80) 99 % of control; under setting [2], 92 % of control; under setting [3], 92 % of control.
`O=C1Nc2ccccc2S/C1=C\c1ccc(C(F)(F)F)cc1`: the T/C is, setting by setting: under setting [2], 115 % of control; under setting [3], 100 % of control; under setting [4], 110 % of control.
As for `CC1(C)CN(Cc2ccccc2)C(C)(C)CN1`, the T/C runs as follows: (dose: 0.78 mg/kg/injection, schedule: Q01DX009 (ip), vehicle: saline with Tween-80) 89 % of control; (dose: 1.56 mg/kg/injection, schedule: Q01DX009 (ip), vehicle: saline with Tween-80) 97 % of control; (dose: 3.12 mg/kg/injection, schedule: Q01DX009 (ip), vehicle: saline with Tween-80) 95 % of control; (dose: 3.12 mg/kg/injection, schedule: Q04DX003 (ip), vehicle: saline with Tween-80) 114 % of control; (dose: 6.25 mg/kg/injection, schedule: Q01DX009 (ip), vehicle: saline with Tween-80) 91 % of control; (dose: 6.25 mg/kg/injection, schedule: Q04DX003 (ip), vehicle: saline with Tween-80) 108 % of control. Besides, the T/C (dose: 12.5 mg/kg/injection, schedule: Q04DX003 (ip), vehicle: saline with Tween-80) was 96 % of control and the T/C (dose: 25.0 mg/kg/injection, schedule: Q04DX003 (ip), vehicle: saline with Tween-80) is 89 % of control.
Regarding `NS(=O)(=O)c1ccc(N=Nc2nc3ncnc(SCc4cccs4)c3[nH]2)cc1`, the T/C is 95 % of control under setting [5]; 104 % of control (dose: 100.0 mg/kg/injection, schedule: Q04DX003 (ip), vehicle: saline); 118 % of control under setting [6]; 104 % of control (dose: 200.0 mg/kg/injection, schedule: Q04DX003 (ip), vehicle: saline); 86 % of control under setting [7]; 108 % of control (dose: 400.0 mg/kg/injection, schedule: Q04DX003 (ip), vehicle: saline).
Regarding `c1ccc(-c2ncnc3c2Cc2ccccc2-3)cc1`, the T/C is 104 % of control under setting [3]; 100 % of control under setting [8]; 104 % of control under setting [4]; 100 % of control under setting [9]; 91 % of control under setting [10]; 109 % of control under setting [11].
With `COC1(OC)C2(Cl)CC(c3ccc(Cl)cc3)C1(Cl)C(Cl)=C2Cl` (stereo not drawn), the T/C reads like this: (dose: 50.0 mg/kg/injection, schedule: Q04DX003 (ip), vehicle: saline with Tween-80) 100 % of control; under setting [8], 95 % of control; under setting [9], 90 % of control.
On to `Cc1ccc(-c2nc3ccccc3c(=O)n2/N=C/c2ccccc2)cc1`, for which the T/C runs as follows: under setting [2], 90 % of control; under setting [3], 93 % of control.
As for `CC1(c2cccc(N)c2)OCCO1`, the T/C runs as follows: under setting [3], 100 % of control; under setting [8], 90 % of control; under setting [4], 95 % of control; under setting [9], 109 % of control; under setting [10], 90 % of control; under setting [11], 109 % of control.
As for `CCOC(=O)/C=C(\C)Nc1cccc([N+](=O)[O-])c1`, the T/C (dose: 25.0 mg/kg/injection, schedule: Q01DX009 (ip), vehicle: other) was 110 % of control; the T/C (dose: 50.0 mg/kg/injection, schedule: Q01DX009 (ip), vehicle: other) was 93 % of control; the T/C under setting [5] is 100 % of control; the T/C under setting [6] was 110 % of control; the T/C under setting [7] is 116 % of control.
Regarding `CN(C)N/C=N/S(C)(=O)=O`, the T/C is 101 % of control (dose: 50.0 mg/kg/injection, schedule: Q01DX009 (ip), vehicle: saline); 101 % of control (dose: 100.0 mg/kg/injection, schedule: Q01DX009 (ip), vehicle: saline); 109 % of control (dose: 200.0 mg/kg/injection, schedule: Q01DX009 (ip), vehicle: saline).
Regarding `CCN/C(C)=C\C(=O)OCC`, the T/C by setting is: under setting [2], 95 % of control; (dose: 100.0 mg/kg/injection, schedule: Q01DX009 (ip), vehicle: Klucel (hydroxypropylcellulose) (HPC)) 122 % of control; under setting [3], 100 % of control; (dose: 100.0 mg/kg/injection, schedule: Q04DX003 (ip), vehicle: Klucel (hydroxypropylcellulose) (HPC)) 100 % of control; (dose: 200.0 mg/kg/injection, schedule: Q01DX009 (ip), vehicle: Klucel (hydroxypropylcellulose) (HPC)) 111 % of control; under setting [4], 117 % of control. In addition, the T/C reads like this: (dose: 200.0 mg/kg/injection, schedule: Q04DX003 (ip), vehicle: Klucel (hydroxypropylcellulose) (HPC)) 100 % of control; (dose: 266.0 mg/kg/injection, schedule: Q01DX009 (ip), vehicle: Klucel (hydroxypropylcellulose) (HPC)) 99 % of control; (dose: 400.0 mg/kg/injection, schedule: Q01DX009 (ip), vehicle: Klucel (hydroxypropylcellulose) (HPC)) 99 % of control; under setting [10], 111 % of control; (dose: 400.0 mg/kg/injection, schedule: Q04DX003 (ip), vehicle: Klucel (hydroxypropylcellulose) (HPC)) 100 % of control.
For the compound `CC(=O)/C(N=Nc1ccccc1)=C(\C)O`, the T/C was 100 % of control (dose: 25.0 mg/kg/injection, schedule: Q01DX009 (sc), vehicle: olive oil, sesame oil, peanut oil); 96 % of control (dose: 50.0 mg/kg/injection, schedule: Q01DX009 (sc), vehicle: olive oil, sesame oil, peanut oil); 112 % of control (dose: 100.0 mg/kg/injection, schedule: Q01DX009 (sc), vehicle: olive oil, sesame oil, peanut oil).
As for `CC(C)C(=O)[O][Sn]([CH3])([CH3])[CH3]`, the T/C (dose: 0.75 mg/kg/injection, schedule: Q01DX009 (ip), vehicle: saline) is 100 % of control and the T/C (dose: 1.5 mg/kg/injection, schedule: Q01DX009 (ip), vehicle: saline) is 91 % of control.
`C1CN1P1(N2CC2)=NP(N2CC2)(N2CC2)=NP(N2CC2)(N2CC2)=N1`: the T/C by setting is: (dose: 0.61 mg/kg/injection, schedule: Q01DX009 (ip), vehicle: saline) 109 % of control; (dose: 0.92 mg/kg/injection, schedule: Q01DX009 (ip), vehicle: saline) 118 % of control; (dose: 2.1 mg/kg/injection, schedule: Q01DX009 (ip), vehicle: saline) 154 % of control; (dose: 3.3 mg/kg/injection, schedule: Q01DX009 (ip), vehicle: saline) 180 % of control and 203 % of control and 204 % of control; under setting [1], 190 % of control and 218 % of control; (dose: 7.5 mg/kg/injection, schedule: Q01DX009 (ip), vehicle: saline) 265 % of control and 272 % of control and 153 % of control.
Regarding `FC(F)(F)c1nc2nc(Cl)c(Cl)nc2n1CCCN1CCOCC1`, the T/C runs as follows: under setting [8], 105 % of control; under setting [9], 115 % of control; under setting [11], 110 % of control.
